Here are results for nine compounds from patent US12083124B2 (Incyte Corporation, priority 2019, dated 2024).

Where two headings read alike, the source gives them in different places. Some results are limits rather than exact numbers.

Test [1] addresses wild-type un-phosphorylated FGFR3 (Homo sapiens, UniProt P22607). Kind of test: FGFR Enzymatic Assay (FRET peptide phosphorylation), FGFR3.
The target of test [2] is wild-type un-phosphorylated FGFR2 (Homo sapiens, UniProt P21802). Put plainly: FGFR Enzymatic Assay (FRET peptide phosphorylation), FGFR2.
In test [3] the target is wild-type un-phosphorylated FGFR1 (Homo sapiens, UniProt P11362). Kind of test: FGFR Enzymatic Assay (FRET peptide phosphorylation), FGFR1. Particulars: pre-incubated for 4 hours.
For test [4], the target named is wild-type un-phosphorylated FGFR4 (Homo sapiens, UniProt P22455). Put plainly: FGFR Enzymatic Assay (FRET peptide phosphorylation), FGFR4.
[5] abbreviates: read-out: FGFR1, wild-type un-phosphorylated FGFR1.
Setting [6] is: read-out: FGFR4, wild-type un-phosphorylated FGFR4, pre-incubated for 4 hours.
The mark [7] stands for this setting: FGFR1, wild-type un-phosphorylated FGFR1.

Chain of wild-type un-phosphorylated FGFR2 (P21802 22-821): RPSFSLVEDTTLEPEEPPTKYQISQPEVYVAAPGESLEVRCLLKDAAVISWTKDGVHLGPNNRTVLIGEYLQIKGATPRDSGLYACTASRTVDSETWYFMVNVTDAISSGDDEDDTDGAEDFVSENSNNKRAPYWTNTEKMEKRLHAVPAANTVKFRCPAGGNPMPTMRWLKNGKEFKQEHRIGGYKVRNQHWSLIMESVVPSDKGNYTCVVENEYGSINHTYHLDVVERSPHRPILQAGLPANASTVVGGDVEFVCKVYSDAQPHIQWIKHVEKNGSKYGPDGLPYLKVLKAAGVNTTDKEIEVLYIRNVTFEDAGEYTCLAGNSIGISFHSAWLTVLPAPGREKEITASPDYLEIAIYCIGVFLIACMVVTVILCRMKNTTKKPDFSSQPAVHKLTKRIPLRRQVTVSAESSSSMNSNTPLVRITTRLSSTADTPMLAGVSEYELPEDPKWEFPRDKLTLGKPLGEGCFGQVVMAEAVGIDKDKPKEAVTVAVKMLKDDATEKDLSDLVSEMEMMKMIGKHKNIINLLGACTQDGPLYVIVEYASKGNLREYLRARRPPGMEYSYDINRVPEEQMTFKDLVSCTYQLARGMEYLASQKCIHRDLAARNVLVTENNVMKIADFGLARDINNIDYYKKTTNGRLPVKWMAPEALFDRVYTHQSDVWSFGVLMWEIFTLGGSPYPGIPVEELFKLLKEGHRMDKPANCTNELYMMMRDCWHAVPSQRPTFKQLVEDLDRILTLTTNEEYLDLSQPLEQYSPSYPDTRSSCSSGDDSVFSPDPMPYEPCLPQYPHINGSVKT
Chain of wild-type un-phosphorylated FGFR1 (P11362 22-822): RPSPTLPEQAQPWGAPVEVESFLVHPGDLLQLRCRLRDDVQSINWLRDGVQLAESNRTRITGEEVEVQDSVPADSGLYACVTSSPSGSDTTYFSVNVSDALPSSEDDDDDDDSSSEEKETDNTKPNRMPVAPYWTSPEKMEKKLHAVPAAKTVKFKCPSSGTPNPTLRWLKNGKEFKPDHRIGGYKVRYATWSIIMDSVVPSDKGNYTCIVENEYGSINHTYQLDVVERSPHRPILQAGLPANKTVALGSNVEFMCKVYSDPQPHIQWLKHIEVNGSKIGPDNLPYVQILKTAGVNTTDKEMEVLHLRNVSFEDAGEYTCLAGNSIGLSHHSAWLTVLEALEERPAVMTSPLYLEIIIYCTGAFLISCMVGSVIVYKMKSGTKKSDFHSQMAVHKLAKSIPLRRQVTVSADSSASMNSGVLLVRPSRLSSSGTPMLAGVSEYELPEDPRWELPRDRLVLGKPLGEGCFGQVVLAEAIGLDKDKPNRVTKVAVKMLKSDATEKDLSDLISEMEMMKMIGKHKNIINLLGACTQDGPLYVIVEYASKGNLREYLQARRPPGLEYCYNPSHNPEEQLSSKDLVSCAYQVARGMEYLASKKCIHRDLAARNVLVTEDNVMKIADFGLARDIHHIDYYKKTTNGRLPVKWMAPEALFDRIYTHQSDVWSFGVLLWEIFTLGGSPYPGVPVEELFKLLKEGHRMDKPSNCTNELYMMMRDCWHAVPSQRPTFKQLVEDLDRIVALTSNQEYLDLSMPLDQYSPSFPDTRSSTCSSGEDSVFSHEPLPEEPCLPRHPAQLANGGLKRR
Chain of wild-type un-phosphorylated FGFR4 (P22455 22-802): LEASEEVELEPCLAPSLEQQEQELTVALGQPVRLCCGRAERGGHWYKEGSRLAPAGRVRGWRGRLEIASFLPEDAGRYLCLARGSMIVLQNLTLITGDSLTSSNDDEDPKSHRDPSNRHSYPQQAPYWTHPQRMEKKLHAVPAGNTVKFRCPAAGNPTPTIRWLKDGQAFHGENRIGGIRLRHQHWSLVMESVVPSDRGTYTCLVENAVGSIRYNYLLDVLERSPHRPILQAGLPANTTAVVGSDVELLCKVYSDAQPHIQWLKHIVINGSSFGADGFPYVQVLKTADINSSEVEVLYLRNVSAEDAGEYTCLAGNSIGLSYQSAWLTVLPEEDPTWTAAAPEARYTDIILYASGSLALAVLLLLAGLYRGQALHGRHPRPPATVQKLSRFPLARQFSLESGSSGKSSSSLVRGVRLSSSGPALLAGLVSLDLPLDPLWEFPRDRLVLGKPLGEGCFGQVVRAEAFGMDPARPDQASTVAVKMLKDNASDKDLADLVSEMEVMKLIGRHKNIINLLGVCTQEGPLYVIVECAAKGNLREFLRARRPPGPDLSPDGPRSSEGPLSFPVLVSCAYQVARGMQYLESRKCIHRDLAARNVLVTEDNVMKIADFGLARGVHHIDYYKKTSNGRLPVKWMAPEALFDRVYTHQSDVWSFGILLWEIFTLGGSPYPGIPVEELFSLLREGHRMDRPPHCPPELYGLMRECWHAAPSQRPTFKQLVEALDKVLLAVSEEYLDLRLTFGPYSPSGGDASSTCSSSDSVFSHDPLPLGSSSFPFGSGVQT
Chain of wild-type un-phosphorylated FGFR3 (P22607 23-806): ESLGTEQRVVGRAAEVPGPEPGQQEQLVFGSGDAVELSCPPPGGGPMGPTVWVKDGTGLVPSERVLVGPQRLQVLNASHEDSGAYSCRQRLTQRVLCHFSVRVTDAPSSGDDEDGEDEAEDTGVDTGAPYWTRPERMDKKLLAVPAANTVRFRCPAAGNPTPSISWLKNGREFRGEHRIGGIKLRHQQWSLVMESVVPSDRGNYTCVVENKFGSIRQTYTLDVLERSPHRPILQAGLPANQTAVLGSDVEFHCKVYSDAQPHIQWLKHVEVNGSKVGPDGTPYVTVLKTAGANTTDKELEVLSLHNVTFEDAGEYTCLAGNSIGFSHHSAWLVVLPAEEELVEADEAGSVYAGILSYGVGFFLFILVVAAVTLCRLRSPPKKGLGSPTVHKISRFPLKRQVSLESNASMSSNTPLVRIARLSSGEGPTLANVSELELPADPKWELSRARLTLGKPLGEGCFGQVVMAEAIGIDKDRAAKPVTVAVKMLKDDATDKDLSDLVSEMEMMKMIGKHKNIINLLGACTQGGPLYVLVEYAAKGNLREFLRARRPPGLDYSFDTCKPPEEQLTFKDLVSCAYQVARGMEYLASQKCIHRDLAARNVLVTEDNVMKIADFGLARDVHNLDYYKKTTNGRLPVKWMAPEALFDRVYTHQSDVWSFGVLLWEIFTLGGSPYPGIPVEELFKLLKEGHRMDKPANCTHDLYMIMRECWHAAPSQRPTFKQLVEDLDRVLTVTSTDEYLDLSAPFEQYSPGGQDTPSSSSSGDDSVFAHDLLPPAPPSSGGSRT

Take `COc1cc2[nH]nc(-c3ccc(N4CC(N(C)C(=O)CO)C4)nc3)c2nc1-c1cccc2c1CCC2` [Example 171, N-(1-(5-(5-(2,3-Dihydro-1H-inden-4-yl)-6-methoxy-1H-pyrazolo[4,3-b]pyridin-3-yl)pyridin-2-yl)azetidin-3-yl)-2-hydroxy-N-methylacetamide]: the IC50 in test [1] was less than 6 nM; in test [2], less than 6 nM; in test [3] (setting [5]), 6 to 40 nM; in test [4] (setting [6]), 6 to 40 nM.

For `Cn1cc(-c2n[nH]c3cc(CO)c(-c4cccc5c4CCC5)nc23)cn1` [Example 36, (5-(2,3-Dihydro-1H-inden-4-yl)-3-(1-methyl-1H-pyrazol-4-yl)-1H-pyrazolo[4,3-b]pyridin-6-yl)methanol], the IC50 in test [1] is less than 6 nM; in test [2] (read-out: FGFR2, wild-type un-phosphorylated FGFR2, pre-incubated for 4 hours), 6 to 40 nM; in test [3] (setting [7]), 40 to 100 nM; in test [4] it was greater than 100 nM.

With `COc1cc2[nH]nc(-c3cnn(CCN4CCOCC4)c3)c2nc1-c1cccc2c1CCC2` [Example 28, 4-(2-(4-(5-(2,3-Dihydro-1H-inden-4-yl)-6-methoxy-1H-pyrazolo[4,3-b]pyridin-3-yl)-1H-pyrazol-1-yl)ethyl)morpholine], the IC50 in test [1] was less than 6 nM; in test [2], less than 6 nM; in test [3] (setting [7]), 40 to 100 nM; in test [4] it was greater than 100 nM.

Take `COc1cc2[nH]nc(-c3cnn(C4CC4)c3)c2nc1-c1cccc2c1CCC2` [Example 29, 3-(1-Cyclopropyl-1H-pyrazol-4-yl)-5-(2,3-dihydro-1H-inden-4-yl)-6-methoxy-1H-pyrazolo[4,3-b]pyridine]: the IC50 is less than 6 nM in test [1], less than 6 nM in test [2], 40 to 100 nM in test [3] (setting [7]) and 40 to 100 nM in test [4].

`COc1cc2[nH]nc(-c3cnn(C4CN(C(=O)[C@H]5CCOC5)C4)c3)c2nc1-c1cccc2c1CCC2` [Example 131, (S)-(3-(4-(5-(2,3-Dihydro-1H-inden-4-yl)-6-methoxy-1H-pyrazolo[4,3-b]pyridin-3-yl)-1H-pyrazol-1-yl)azetidin-1-yl)(tetrahydrofuran-3-yl)methanone]: the IC50 in test [1] is less than 6 nM; in test [2], less than 6 nM; in test [3] (setting [5]), 6 to 40 nM; in test [4] (setting [6]) it was 6 to 40 nM.

As to `COc1cc2[nH]nc(-c3ccc(N4CCN5C[C@H](O)C[C@H]5C4)nc3)c2nc1-c1cccc(C)c1C` [Example 87, (7R,8aS)-2-(5-(5-(2,3-Dimethylphenyl)-6-methoxy-1H-pyrazolo[4,3-b]pyridin-3-yl)pyridin-2-yl)octahydropyrrolo[1,2-a]pyrazin-7-ol], the IC50 in test [1] is less than 6 nM; in test [2], less than 6 nM; in test [3] (setting [7]) it was 40 to 100 nM; in test [4], 40 to 100 nM.

On to `COc1cc2[nH]nc(-c3ccc(C4CCN(C(=O)C5COCCN5C)C4)nc3)c2nc1-c1cccc2c1CCC2` (single isomer, unassigned) [Example 109], for which the IC50 in test [1] was less than 6 nM; in test [2], less than 6 nM; in test [3] (setting [5]), 6 to 40 nM; in test [4] (setting [6]) it was 6 to 40 nM.

With `COc1cc2[nH]nc(-c3cnn(C4CN(C(=O)[C@H]5C[C@@](C)(O)C5)C4)c3)c2nc1-c1cccc2c1CCC2` [Example 136, (3-(4-(5-(2,3-Dihydro-1H-inden-4-yl)-6-methoxy-1H-pyrazolo[4,3-b]pyridin-3-yl)-1H-pyrazol-1-yl)azetidin-1-yl)((1s,3s)-3-hydroxy-3-methylcyclobutyl)methanone], the IC50 in test [1] was less than 6 nM; in test [2], less than 6 nM; in test [3] (setting [5]), 6 to 40 nM; in test [4] (setting [6]) it was 6 to 40 nM.

Regarding `COc1cc2[nH]nc(-c3ccc(C4CC(N(C)C(=O)[C@H](C)O)C4)nc3)c2nc1-c1cccc2c1CCC2` (stereo partly drawn) [Example 190, (S)-N-(3-(5-(5-(2,3-Dihydro-1H-inden-4-yl)-6-methoxy-1H-pyrazolo[4,3-b]pyridin-3-yl)pyridin-2-yl)cyclobutyl)-2-hydroxy-N-methylpropanamide], the IC50 is less than 6 nM in test [1], less than 6 nM in test [2], 6 to 40 nM in test [3] (setting [5]) and 40 to 100 nM in test [4].
